What was measured:
H460 cells = experiment: Proliferation assay in H460 cells (2 hr exposure, AlamarBlue); type: cell-based, human; settings: Homo sapiens, NCI-H460, 2 hrs exposure, wash, 70 hrs growth, read-out: IC 50 in proliferation assay in H460 cells
Summary of the method: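 H460 cells seeded at 4×10^3/well, grown 24 h, then exposed to compound for 2 h at 37 °C. Drug was washed off and cells were regrown 70 h in fresh medium. Viable cells were read by AlamarBlue, and IC50 was taken as the concentration giving 50% growth inhibition.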

C3A = experiment: TH2870 sensitivity in liver cancer cells; type: cell-based, human; settings: AKR1C3 expression ++++
Hep G2 = experiment: TH2870 sensitivity in liver cancer cells; type: cell-based, human
LNCap = experiment: TH2870 sensitivity in prostate cancer cell lines; type: cell-based; settings: Homo sapiens
[1] = system: A 549 non-small cell lung xenograft; experiment: Example 4-B antitumor efficacy, ectopic A549 NSCLC xenograft model; type: in vivo, female nude mice (nu/nu); settings: 20 mg/kg ip QD × 5/wk × 2 wks
[2] = system: A375 melanoma human tumor xenograft; experiment: Example 4-C antitumor efficacy, ectopic A375 melanoma xenograft model; type: in vivo, female nude mice (nu/nu); settings: qd × 5 × 2, ip
[3] = Example 4-I body weight change, H460 xenograft study; type: in vivo, female nude mice (nu/nu); settings: iv, Q7D × 3
Method: Cells were mixed with Matrigel (50% with exception for 30% in the H460) and 0.2 ml per mouse were subcutaneously implanted to the flank area of the animals. When tumor size reached 100-150 250 mm3, mice were randomized into experimental or vehicle groups with 10 mice/group and treatment was started (Day 1). The tested compounds were formulated in 5% DMSO in D5W. The regimens employed in the examples include IP, QD×5/wk (5 days on, 2 days off) as one cycle, for a total of 2 cycles; IP, once; IP, weekly for total 3 weeks; and IV, weekly for 3 weeks. Tumor growth and body weight were measured twice a week. Tumor volume was calculated as (length×width2)/2. Drug efficacy was assessed as Tumor Growth Inhibition (TGI) and Tumor Growth Delay (TGD). TGI was defined as (1−ΔT/ΔC)×100, where ΔT/ΔC presented the ratio of the change in mean (or median, if variation within the group was relatively large) tumor volume of the treated group and of the control group. TGD was calculated as the extra days for the treated tumor to reach 500 mm3 or 1000 mm3 as compared to the control group. Animals were culled when individual tumor size reached over 2000 mm3 or mean tumor volume exceeded 1000 mm3 in the group. Data are expressed as the mean±SEM. One-way analysis of variance with Dunnett post comparison test (GraphPad Prism 4) or two-tailed student's t-test were used for analysis. A P level <0.05 was considered statistically significant.
The compound TH-2870 was tested in a H460 model. The compound was dosed follows. 1.5, 5 or 15 mg/kg, IV, weekly for 3 weeks at 250 mm^3 tumors on day 1 (10 animals per group average tumor volume), comparing with docetaxel. The antitumor effects and the safety of administration are graphically illustrated below.

AKR1C3 = target: T1, AKR1C3 (Homo sapiens, UniProt P42330); experiment: Activation by the aldoketo reductase AKR1C3 (% remaining, LC/MS/MS); type: biochemical; settings: for % Remaining: 5 μM, 25 μg/mL AKR1C3, 2 mM NADPH, 37° C.
T1 sequence (P42330 1-323): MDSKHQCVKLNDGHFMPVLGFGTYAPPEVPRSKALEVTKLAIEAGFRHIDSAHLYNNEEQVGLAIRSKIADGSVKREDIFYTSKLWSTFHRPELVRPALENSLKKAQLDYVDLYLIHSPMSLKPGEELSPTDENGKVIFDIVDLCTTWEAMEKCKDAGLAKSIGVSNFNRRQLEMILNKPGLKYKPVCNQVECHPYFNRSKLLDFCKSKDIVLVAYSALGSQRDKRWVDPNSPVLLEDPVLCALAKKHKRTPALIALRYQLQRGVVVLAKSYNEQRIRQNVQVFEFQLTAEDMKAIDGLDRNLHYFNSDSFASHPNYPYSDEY
Method: Recombinant human AKR1C3 was diluted to 25 μg/mL in phosphate buffered saline (PBS), pH 7.4 (37° C.), containing 2 mM NADPH. TH2870 or progesterone (positive control) in 30% methanol/70% water was added to the reaction mixture at a final concentration of 5 μM and incubated at 37° C. for 120 minutes. At various times up to 120 min, 50 μL of the reaction mixture was taken and 200 μL acetonitrile containing propranolol as internal standard was added, vortex-mixed and centrifuged for 10 min. The resulting supernatant (5 μL) was injected into a LC/MS/MS for quantitation of % remaining TH2870 and progesterone. The compounds were tested in duplicate.

[4] = Nu-Foxn1nu NU/NU, mouse, in vivo, ip, 20 mg/kg
Method: The pharmacokinetics of TH2870 were determined in Mouse/Nu-Foxn 1^nu NU/NU mice with A549 (non small cell lung), A375 (melanoma) and 786-O (renal cell) human tumor xenograft models following a single intraperitoneal dose of 20 mg/kg.

## CC(OP(=O)(N1CC1)N1CC1)c1ccc([N+](=O)[O-])c(Oc2cccc(C(=O)N(C)C)c2)c1 (centres unmarked) [Compound 2870]
H460 cells
  IC50: 0.4 nM
C3A
  Max Inhibition %: 98.1%
C3A; Homo sapiens, read-out: RelIC50
  IC50: 7.1 nM
Hep G2; AKR1C3 expression ++++
  Max Inhibition %: 98.9%
Hep G2; Homo sapiens, HepG2, AKR1C3 expression ++++, read-out: RelIC50
  IC50: 5.5 nM
LNCap
  IC50: 162 nM
[1]
  TGD 500: >72 days
  TGI: 102.3%
[2]; 20 mpk
  TGD 500: 24 days
  TGD 1000: >18 days
[2]; Mus musculus, A-375, 20 mpk, read-out: TGI
  inhibition in vivo at 20 mg/kg: 98%
[3]; 1.5 mg/kg
  Max. BW loss %: 7.6%
[3]; 5 mg/kg
  Max. BW loss %: 7.6%
[3]; 15 mg/kg
  Max. BW loss %: 5.8%
AKR1C3; 0 min
  % Remaining: 100%
AKR1C3; 15 min
  % Remaining: 0.232%
AKR1C3; 30 min
  % Remaining: 0.0101%
AKR1C3; 60 min
  % Remaining: 0.00%
AKR1C3; 90 min
  % Remaining: 0.00%
AKR1C3; 120 min
  % Remaining: 0.00%
AKR1C3; in words
  disappearance in the presence of AKR1C3: rapid disappearance
[4]
  activation of TH2870 in liver (TH2660 relative to TH2870): ~13 fold
  activation of TH2870 in tumor (TH2660 relative to TH2870): ~148 fold
